We go through ten compounds from patent US7947662B2, “Folates, compositions and uses thereof” (priority 2008, dated 2011).

Like-named read-outs stand apart in the source and are kept apart here.

Data set [1] is described as follows: Stability of the powder in sealed aluminium foil bag, purity and titre by HPLC. Type of data set: physicochemical. Particulars: protected from light; for Titre, starting values: HPLC titre of acid moiety; for Titre, starting values / Purity, starting values: start; for Purity, starting values: airtight container. Here is the method:
The stability of the compounds listed in the following table, under powder form and in sealed aluminium foil bag, was tested, keeping the samples in airtight container, protected from light and measuring the purity and the titre thereof after 6 and 12 months.
In particular, the stability of the acid moiety was observed by HPLC, detecting the purity and titre thereof.

For data set [2] the following is noted: mice, one capsule.
Experimental: The biological tests were carried out on 12 mice weighing 200-300 g, administering to each of them one 3 mg capsule containing the dose of the selected compound, as below reported, dispersed in lactose.
The haematic values of the selected compound were subsequently evaluated after regular time intervals (0, 30, 60, 95, 120 min.).
For data set [3] the following is noted: cited from earlier work.
The conditions of data set [4]: background statement, cited from earlier work.
Where [5] appears, read: after nine months, U.S. Pat. No. 5,817,659 (Example 1).
The mark [6] stands for this setting: after twelve months, U.S. Pat. No. 6,271,374 (Example 1).

`CN1c2c(nc(N)[nH]c2=O)NCC1CNc1ccc(C(=O)NC(CCC(=O)O)C(=O)O)cc1.NC1C(O)OC(CO)C(O)C1O.NC1C(O)OC(CO)C(O)C1O` [D-GLU (6S)-5-MTHF, D-glucosamine 5-methyl-(6S)-tetrahydrofolate]: in data set [1], the Titre, starting values is 55.7%; the “Purity, starting values” was 99.3; the “Purity after 6 months” value stood at 99.0; the Titre after 6 months is 55.4%. Further, in data set [1], the “Purity after 12 months” value was 98.5 and the Titre after 12 months came to 55.1%. Further, in data set [2] (time 0.5 h), the haematic value amounted to 83.7 ± 5.2 nmol/L. Besides, in data set [2] (time 1 h), the haematic value stood at 86.1 ± 5.0 nmol/L. Besides, the haematic value in data set [2] (time 1.5 h) was determined as 83.7 ± 4.3 nmol/L. For the same compound, in data set [2] (time 2 h), the haematic value is 83 ± 4.3 nmol/L.
On to `N[C@H]1C(O)O[C@H](CO)[C@@H](O)[C@@H]1O.N[C@H]1C(O)O[C@H](CO)[C@@H](O)[C@@H]1O.Nc1nc2ncc(CNc3ccc(C(=O)N[C@@H](CCC(=O)O)C(=O)O)cc3)nc2c(=O)[nH]1` [D-GLU folate, D-glucosamine L-folate], for which, in data set [1], the Titre, starting values is 54.6%; the “Purity, starting values” is 99.1; the “Purity after 6 months” value is recorded as 98.8; the Titre after 6 months came out at 54.3%. Also, in data set [1], the “Purity after 12 months” value is recorded as 98.7 and the Titre after 12 months came out at 54%. For the same compound, the haematic value in data set [2] (time 0.5 h) turned out to be 75.3 ± 4.3 nmol/L. For the same compound, the haematic value in data set [2] (time 1 h) turned out to be 79.8 ± 5.2 nmol/L. For the same compound, in data set [2] (time 1.5 h), the haematic value was found to be 78.4 ± 4.3 nmol/L. In addition, in data set [2] (time 2 h), the haematic value came out at 76.8 ± 4.3 nmol/L.
`Nc1nc(=O)c2c([nH]1)NC[C@@H](CNc1ccc(C(=O)N[C@@H](CCC(=O)[O-])C(=O)[O-])cc1)N2.[Ca+2]` [(6R)-tetrahydrofolic acid calcium salts]: the titre decrease entry in data set [3] (setting [5]) is on record as “about 2%”; in data set [3] (setting [6]), “about 7%”.
Turning to `CN1c2c(nc(N)[nH]c2=O)NCC1CNc1ccc(C(=O)NC(CCC(=O)O)C(=O)O)cc1.NC1C(O)OC(CO)C(O)C1O.NC1C(O)OC(CO)C(O)C1O` (mixture of isomers) [D-GLU 5-MTHF, D-glucosamine 5-methyl-(6R,S)-tetrahydrofolate], in data set [1], the Titre, starting values was 55.2%; the “Purity, starting values” was 99.1; the “Purity after 6 months” value came out at 98.9; the Titre after 6 months came to 55%. In addition, in data set [1], the “Purity after 12 months” value was determined as 99.0 and the Titre after 12 months was found to be 54.8%. This compound also gave a haematic value in data set [2] (time 0.5 h) of 83.2 ± 4.9 nmol/L. In data set [2] (time 1.5 h), this compound registered a haematic value of 83.8 ± 4.3 nmol/L. In data set [2] (time 2 h), this compound had a haematic value of 82.8 ± 4.3 nmol/L.
In the case of `Nc1nc(=O)c2c([nH]1)NC[C@H](CNc1ccc(C(=O)N[C@@H](CCC(=O)[O-])C(=O)[O-])cc1)N2.[Ca+2]` [(6S)-tetrahydrofolic acid calcium salts], the results for the titre decrease result in data set [3] (setting [5]) and in data set [3] (setting [6]) were “about 2%” and “about 7%”, respectively.
On to `Nc1nc2ncc(CNc3ccc(C(=O)N[C@@H](CCC(=O)O)C(=O)O)cc3)nc2c(=O)[nH]1` [Folic acid, N-[4-[[(2-amino-1,4-dihydro-4-oxo-6-pteridinyl)methyl]amino]benzoyl]-L-glutamic acid], for which the “solubility in alcohol” value in data set [4] (alcohol) is “insoluble”. For the same compound, the “solubility in dilute solutions of alkali hydroxides and carbonates” value in data set [4] is given as “readily soluble”. Also, the “solubility in water” value in data set [4] (water) was “very slightly soluble”.
Regarding `CN1c2c([nH]c(N)nc2=O)NC[C@@H]1CNc1ccc(C(=O)N[C@@H](CCC(=O)[O-])C(=O)[O-])cc1.[Ca+2]` [5-methyl-(6S)-tetrahydrofolic acid calcium salts], the titre decrease result in data set [3] (after twelve months, U.S. Pat. No. 6,441,168 (Example 1)) is on record as “about 1%”.
For the compound `Nc1nc(=O)c2c([nH]1)NCC(CNc1ccc(C(=O)N[C@@H](CCC(=O)[O-])C(=O)[O-])cc1)N2.[Ca+2]` (stereo partly drawn) [(6R,S)-tetrahydrofolic acid calcium salts], the titre decrease entry in data set [3] (setting [5]) is listed as “about 2%”.
As to `N[C@H]1C(O)O[C@H](CO)[C@H](O)[C@@H]1O.N[C@H]1C(O)O[C@H](CO)[C@H](O)[C@@H]1O.Nc1nc2ncc(CNc3ccc(C(=O)N[C@@H](CCC(=O)O)C(=O)O)cc3)nc2c(=O)[nH]1` [D-GAL folate, D-galactosamine L-folate], in data set [1], the Titre, starting values came out at 54.8%; the “Purity, starting values” amounted to 99.2; the “Purity after 6 months” value was determined as 99.1; the Titre after 6 months came to 54.5%. In data set [1], the “Purity after 12 months” value was found to be 98.7 and the Titre after 12 months amounted to 54.2%.
As to `CN1c2c(nc(N)[nH]c2=O)NCC1CNc1ccc(C(=O)NC(CCC(=O)O)C(=O)O)cc1.NC1C(O)OC(CO)C(O)C1O.NC1C(O)OC(CO)C(O)C1O` (mixture of isomers) [D-GAL (6R,S)-5-MTHF, D-galactosamine 5-methyl-(6R,S)-tetrahydrofolate], in data set [1], the Titre, starting values was 55.5%; the “Purity, starting values” was determined as 99.1; the “Purity after 6 months” value is on record as 98.9; the Titre after 6 months was determined as 55.2%. Besides, in data set [1], the “Purity after 12 months” value stood at 98.7 and the Titre after 12 months amounted to 55.3%.
